Measured values taken from patent US20080146516A1, “Novel C-Glycosides, uses thereof” (L 'OREAL SA, priority 2004, published 2008).

System: normal human dermal fibroblasts
Assay: Synthesis of glycosaminoglycans (hyaluronic acid): incorporation of radioactivity into the matrix neosynthesized by fibroblast cultures
Format: cell-based
Settings: 72 hours incubation; for cpm (radioactivity incorporated into matrix GAGs): 35S-sulphate during final 24 hours; for %/control: relative to the control (100)
Protocol: The study was carried out by measuring the incorporation of radioactive glucosamine into the matrix neosynthesized by normal human dermal fibroblast cultures. The incorporation of radioactive glucosamine indicates specific neosynthesis of glycosaminoglycans via incorporation of the sulphated form of this glucosamine.
Normal human dermal fibroblasts were seeded in the conventional culture medium and were then preincubated for 24 hours. The culture medium was then replaced with the test compounds at concentrations of 0.3, 1 and 3 mM; or culture medium (control); or TGFβ at 10 ng/ml (quality control). The cells were incubated for 72 hours with the addition of ^35S-sulphate during the final 24 hours of culture. The GAGs in the matrix were extracted with a chaotropic buffer and then purified by ion exchange chromatography (adsorption of the anionic molecules onto Q-sepharose beads under high stringency conditions, followed by desorption of the weakly and moderately anionic molecules with urea). The radioactivity incorporated into the very […] molecules that remained on the support were counted by liquid scintillation.
The results are expressed as percentage relative to the control: […]

Row | Molecule | cpm (radioactivity incorporated into matrix GAGs) (10 ng/ml) [cpm] | %/control (10 ng/ml) [%] | cpm (radioactivity incorporated into matrix GAGs) (0.3 mM) [cpm] | %/control (0.3 mM) [%] | cpm (radioactivity incorporated into matrix GAGs) (1 mM) [cpm] | %/control (1 mM) [%] | cpm (radioactivity incorporated into matrix GAGs) (3 mM) [cpm] | %/control (3 mM) [%]
1 | TGFβ [reference compound] | 9625 | 192 |  |  |  |  |  | 
2 | C[C@H](O)C[C@@H]1OC[C@@H](O)[C@H](O)[C@H]1O [Example 1, C-β-D-xylopyranoside-2-(S)-hydroxypropane] |  |  | 16276 | 325 | 30943 | 618 | 40770 | 814
